In ChEMBL document CHEMBL1909046, “DrugMatrix in vitro pharmacology data”:
Where a SMILES comes first, the peptide text is derived from it. Bridges are numbered along the chain shown (N, C = ends). [ ]: non-standard residue; d: D form. The star is where a group is joined. Threoninol(2S,3R) = C[C@@H](O)[C@H](CO)N*

How the values were obtained:
Glucocorticoid receptor = molecular target: T1, Glucocorticoid receptor (Homo sapiens, UniProt P04150); conditions: hela s3; note: in other assays of this panel Not Active means under 50% inhibition at 10 µM
T1 sequence (P04150 whole entry): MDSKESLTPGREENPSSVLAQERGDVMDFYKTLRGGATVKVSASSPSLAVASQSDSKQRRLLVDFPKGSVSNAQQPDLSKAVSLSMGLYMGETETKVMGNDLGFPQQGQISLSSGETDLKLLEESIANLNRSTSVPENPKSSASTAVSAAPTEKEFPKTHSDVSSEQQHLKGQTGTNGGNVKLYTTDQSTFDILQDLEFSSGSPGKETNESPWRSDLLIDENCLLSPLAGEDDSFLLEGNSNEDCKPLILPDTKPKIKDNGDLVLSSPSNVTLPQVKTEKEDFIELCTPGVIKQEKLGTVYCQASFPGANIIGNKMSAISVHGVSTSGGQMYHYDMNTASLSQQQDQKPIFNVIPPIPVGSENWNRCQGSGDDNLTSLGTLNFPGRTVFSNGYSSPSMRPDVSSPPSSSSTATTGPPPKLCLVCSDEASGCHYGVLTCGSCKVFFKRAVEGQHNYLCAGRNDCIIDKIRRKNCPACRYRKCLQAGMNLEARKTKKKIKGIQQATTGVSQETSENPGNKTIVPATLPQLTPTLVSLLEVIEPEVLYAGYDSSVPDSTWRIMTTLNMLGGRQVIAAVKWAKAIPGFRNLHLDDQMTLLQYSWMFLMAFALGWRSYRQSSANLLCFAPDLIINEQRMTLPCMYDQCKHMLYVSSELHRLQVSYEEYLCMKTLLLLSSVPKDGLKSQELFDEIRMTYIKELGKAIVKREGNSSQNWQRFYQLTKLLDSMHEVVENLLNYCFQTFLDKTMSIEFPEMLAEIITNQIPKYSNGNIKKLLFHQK

[1] = molecular target: Sodium-dependent noradrenaline transporter (Homo sapiens, UniProt P23975); experiment: DRUGMATRIX: Norepinephrine Transporter radioligand binding (ligand: [125I] RTI-55); assay type: cell membranes, MDCK, Membrane; conditions: Not Active = under 50% inhibition at 10 µM
Chain of Sodium-dependent noradrenaline transporter (P23975 whole entry): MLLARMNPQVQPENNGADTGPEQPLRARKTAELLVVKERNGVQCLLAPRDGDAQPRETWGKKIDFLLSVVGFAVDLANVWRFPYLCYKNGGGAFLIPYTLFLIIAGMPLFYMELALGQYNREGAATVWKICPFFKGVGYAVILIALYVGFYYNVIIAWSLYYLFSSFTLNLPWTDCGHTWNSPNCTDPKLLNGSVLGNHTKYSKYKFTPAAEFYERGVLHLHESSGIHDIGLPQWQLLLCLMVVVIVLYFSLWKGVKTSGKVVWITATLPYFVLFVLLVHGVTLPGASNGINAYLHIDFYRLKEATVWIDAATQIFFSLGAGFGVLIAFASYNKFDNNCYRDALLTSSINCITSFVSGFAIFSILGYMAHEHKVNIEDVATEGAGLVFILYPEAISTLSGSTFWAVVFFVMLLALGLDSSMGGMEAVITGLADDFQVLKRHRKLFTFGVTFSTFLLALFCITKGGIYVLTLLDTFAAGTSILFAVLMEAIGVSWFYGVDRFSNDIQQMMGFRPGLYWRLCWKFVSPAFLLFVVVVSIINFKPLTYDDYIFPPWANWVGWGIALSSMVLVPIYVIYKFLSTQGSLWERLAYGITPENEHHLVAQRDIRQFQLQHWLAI

Structure (SMILES) | IC50 (Glucocorticoid receptor) | IC50 ([1]; mdck) | IC50 ([1]; read-out: IC50) [µM] | Ki ([1]; read-out: Ki) [µM]
CCCN(CCC)C(=O)C(CCC(=O)O)NC(=O)c1ccccc1 (stereo not drawn) [PROGLUMIDE] | Not Active | Not Active |  | 
O=C(N[C@H](CO)[C@H](O)c1ccc([N+](=O)[O-])cc1)C(Cl)Cl [CHLORAMPHENICOL] |  | Not Active |  | 
CCCCOc1ccc(OCCCN2CCOCC2)cc1 [PRAMOXINE] |  | Not Active |  | 
CC(C)(C(=O)c1cccnc1)c1cccnc1 [METYRAPONE] | Not Active | Not Active |  | 
NC(=O)c1cnccn1 [PYRAZINAMIDE] | Not Active | Not Active |  | 
CC[C@@H](CO)NCCN[C@@H](CC)CO [ETHAMBUTOL] |  | Not Active |  | 
C[C@@H]1C[C@@H]([C@H](O)CC2CC(=O)NC(=O)C2)C(=O)[C@@H](C)C1 [CYCLOHEXIMIDE] |  | Not Active |  | 
CCn1cc(C(=O)O)c(=O)c2cc(F)c(N3CCN(C)CC3)cc21 [PEFLOXACIN] | Not Active | Not Active |  | 
CCN(CC)CCOC(=O)c1ccc(N)cc1 [PROCAINE] |  | Not Active |  | 
CCCC(CCC)C(=O)O [VALPROIC ACID] | Not Active | Not Active |  | 
COc1ccc2cc([C@H](C)C(=O)O)ccc2c1 [NAPROXEN] |  | Not Active |  | 
C[C@@H](O)[C@H](CO)NC(=O)[C@@H]1CSSC[C@H](NC(=O)[C@H](N)Cc2ccccc2)C(=O)N[C@@H](Cc2ccccc2)C(=O)N[C@H](Cc2c[nH]c3ccccc23)C(=O)N[C@@H](CCCCN)C(=O)N[C@@H]([C@@H](C)O)C(=O)N1 (H-[dF]CF[dW]KTC-{Threoninol(2S,3R)}; disulfide 2-7) | Not Active | Not Active |  | 
Cc1nccn1CC1CCc2c(c3ccccc3n2C)C1=O (stereo not drawn) [ONDANSETRON] | Not Active | Not Active |  | 
C#C[C@]1(O)CC[C@H]2[C@@H]3CCc4cc(OC)ccc4[C@H]3CC[C@@]21C [MESTRANOL] | Not Active |  | 1.38 | 1.37
CC(C(=O)O)c1cccc(C(=O)c2ccccc2)c1 (stereo not drawn) [KETOPROFEN] |  | Not Active |  | 
NC(=O)NO [HYDROXYUREA] | Not Active | Not Active |  | 
O=c1ccc2ccccc2o1 [COUMARIN] |  | Not Active |  | 
CN1C(=O)COc2c(C(=O)NC3CN4CCC3CC4)cc(Cl)cc21 (stereo not drawn) [AZASETRON] |  | Not Active |  | 
C[C@H]1C[C@H]2[C@@H]3CCC4=CC(=O)C=C[C@]4(C)[C@@]3(Cl)[C@@H](O)C[C@]2(C)[C@@]1(O)C(=O)CO [BECLOMETHASONE] |  | Not Active |  | 
COc1cccc2c1C(=O)c1c(O)c3c(c(O)c1C2=O)C[C@@](O)(C(=O)CO)C[C@@H]3O[C@H]1C[C@H](N)[C@@H](O)[C@H](C)O1 [EPIRUBICIN] | Not Active | Not Active |  | 
COc1ccc2c(c1)[C@]13CCCC[C@@H]1[C@H](C2)N(C)CC3 [DEXTROMETHORPHAN] | Not Active | Not Active |  | 
COP(=O)(OC)OC=C(Cl)Cl [DICHLORVOS] |  | Not Active |  | 
CCN[C@@H]1C[C@H](N)[C@@H](O[C@H]2OC(CN)=CC[C@H]2N)[C@H](O)[C@H]1O[C@H]1OC[C@](C)(O)[C@H](NC)[C@H]1O [NETILMICIN] |  | Not Active |  | 
CN(C)/N=N/c1[nH]cnc1C(N)=O [DACARBAZINE] | Not Active | Not Active |  | 
Nc1ccn([C@@H]2CS[C@H](CO)O2)c(=O)n1 [LAMIVUDINE] | Not Active | Not Active |  | 
CC(C)[C@H]1CC[C@H](C(=O)N[C@H](Cc2ccccc2)C(=O)O)CC1 [NATEGLINIDE] | Not Active | Not Active |  | 

Structure (SMILES) | IC50 (Glucocorticoid receptor) | IC50 ([1]; mdck) | IC50 ([1]; read-out: IC50) [µM] | Ki ([1]; read-out: Ki) [µM]
CCCC(=O)Nc1ccc(OCC(O)CNC(C)C)c(C(C)=O)c1 (stereo not drawn) [ACEBUTOLOL] | Not Active | Not Active |  | 
CC1=C(C(=O)O)N2C(=O)[C@@H](NC(=O)[C@H](N)c3ccccc3)[C@H]2SC1 [CEPHALEXIN ANHYDROUS] | Not Active | Not Active |  | 
COC(=O)C1=C(C)NC(C)=C(C(=O)OCC(C)C)C1c1ccccc1[N+](=O)[O-] (stereo not drawn) [NISOLDIPINE] | Not Active | Not Active |  | 
CCc1c2c(nc3ccc(OC(=O)N4CCC(N5CCCCC5)CC4)cc13)-c1cc3c(c(=O)n1C2)COC(=O)[C@]3(O)CC [IRINOTECAN] | Not Active | Not Active |  | 
C[C@]12CC[C@@H]3c4ccc(O)cc4CC[C@H]3[C@@H]1CC[C@@H]2O [ESTRADIOL] |  | Not Active |  | 
ClC(Cl)Cl [CHLOROFORM] | Not Active | Not Active |  | 
N=C(N)NC(=O)c1nc(Cl)c(N)nc1N [AMILORIDE] | Not Active | Not Active |  | 
Cc1ccc(S(=O)(=O)NC(=O)NN2CC3CCCC3C2)cc1 (stereo not drawn) [GLICLAZIDE] |  | Not Active |  | 
COc1cccc2c1C(=O)c1c(O)c3c(c(O)c1C2=O)C[C@@](O)(C(=O)CO)C[C@@H]3O[C@H]1C[C@H](N)[C@H](O)[C@H](C)O1 [DOXORUBICIN] | Not Active | Not Active |  | 
Cc1cc2cc3c(C)cc(=O)oc3c(C)c2o1 [TRIOXSALEN] |  | Not Active |  | 
Cc1ncc([N+](=O)[O-])n1CCO [METRONIDAZOLE] |  | Not Active |  | 
O=C(C1CCCCC1)N1CC(=O)N2CCc3ccccc3C2C1 (stereo not drawn) [PRAZIQUANTEL] | Not Active | Not Active |  | 
C=C1CC[C@H](O)C/C1=C/C=C1\CCC[C@]2(C)[C@@H]([C@H](C)CCCC(C)C)CC[C@@H]12 [CHOLECALCIFEROL] | Not Active | Not Active |  | 
COc1ccc2[nH]c([S+]([O-])Cc3ncc(C)c(OC)c3C)nc2c1 (stereo not drawn) [OMEPRAZOLE] |  | Not Active |  | 
C[C@@]12C(=O)OC(=O)[C@]1(C)[C@H]1CC[C@@H]2O1 [CANTHARIDIN] | Not Active | Not Active |  | 
Nc1c(CC(=O)O)cccc1C(=O)c1ccc(Br)cc1 [BROMFENAC] |  | Not Active |  | 
C[N+](C)(C)CCO.[Cl-] [CHOLINE CHLORIDE] |  | Not Active |  | 
O=S(=O)([O-])CCS.[Na+] [MESNA] | Not Active | Not Active |  | 
CCC1=C[C@@H]2CN(C1)Cc1c([nH]c3ccccc13)[C@@](C(=O)OC)(c1cc3c(cc1OC)N(C)[C@H]1[C@@](O)(C(=O)OC)[C@H](OC(C)=O)[C@]4(CC)C=CCN5CC[C@]31[C@@H]54)C2 [VINORELBINE] | Not Active | Not Active |  | 
CCOC(=O)[C@H](CCc1ccccc1)N[C@H]1CCc2ccccc2N(CC(=O)O)C1=O [BENAZEPRIL] | Not Active | Not Active |  | 
CCOC(=O)C(C)(C)Oc1ccc(Cl)cc1 [CLOFIBRATE] | Not Active | Not Active |  | 
CC(=O)Nc1c(I)c(NC(C)=O)c(I)c(C(=O)O)c1I [DIATRIZOIC ACID] | Not Active | Not Active |  | 
O=C1CC[C@H](N2C(=O)c3ccccc3C2=O)C(=O)N1 | Not Active | Not Active |  | 
C/C=C/C[C@@H](C)[C@@H](O)[C@H]1C(=O)N[C@@H](CC)C(=O)N(C)CC(=O)N(C)[C@@H](CC(C)C)C(=O)N[C@@H](C(C)C)C(=O)N(C)[C@@H](CC(C)C)C(=O)N[C@@H](C)C(=O)N[C@H](C)C(=O)N(C)[C@@H](CC(C)C)C(=O)N(C)[C@@H](CC(C)C)C(=O)N(C)[C@@H](C(C)C)C(=O)N1C [CYCLOSPORINE] |  | Not Active |  | 
CC(C)Cc1ccc(C(C)C(=O)O)cc1 (stereo not drawn) [IBUPROFEN] | Not Active | Not Active |  | 
